{"source": "patent US20130261045A1", "about": "“GREEN TEA POLYPHENOL ALPHA SECRETASE ENHANCERS AND METHODS OF USE” (UNIVERSITY OF SOUTH FLORIDA, priority 2005, published 2013)", "key": {"APP cleavage processing": {"system": "APP cleavage processing", "experiment": "Western blot/immunoprecipitation of APP cleavage (CTFs, sAPP-α, holo APP) in APP-transfected N2a cells", "type": "cell-based, murine", "experimental": "Cell cultured supernatants were collected and cell lysates were prepared from these cultured cells.\n(§1) Cultured cells and mouse brain were lysed in ice-cold lysis buffer described above, and an aliquot corresponding to 50 μg of total protein was electrophoretically separated using 16.5% Tris-tricine gels. Electrophoresed proteins were then transferred to PVDF membranes (Bio-Rad), washed in dH2O, and blocked for 1 hour at ambient temperature in Tris-buffered saline (TBS; Bio-Rad) containing 5% (w/v) for non-fat dry milk. After blocking, membranes were hybridized for 1 hour at ambient temperature with various antibodies, including against the C- (369), N-terminus of APP (22C11), the N-terminus of Aβ (6E10), and ADAM10 and TACE (Calbiochem). Membranes were then washed 3× for 5 min each in dH2O and incubated for 1 hour at ambient temperature with the appropriate HRP-conjugated secondary antibody (1:1,000, Pierce Biotechnology, Inc. Rockford, Ill.). All antibodies were diluted in TBS containing 5% (w/v) of non-fat dry milk. Blots were developed using the luminal reagent (Pierce Biotechnology). Densitometric analysis was done using the Fluor-S Multimager™ with Quantity One™ software (Bio-Rad). Immunoprecipitation was performed for detection of sAPP-α, sAPP-β and Aβ by incubating 200 μg of total protein of each sample with 6E10 (1:100; Signet) or 22C11 (1:100; Roche, Basel, Switzerland) overnight with gentle rocking at 4° C., and 10 μL of 50% protein A-Sepharose beads were then added to the sample (1:10; Sigma) prior to gentle rocking for an additional 4 hours at 4° C. Following washes with 1× cell lysis buffer, samples were subjected to Western blot as described above. Antibodies used for Western blot included antibody 369 (1:1,000), anti-C-terminal APP antibody (1:500; Chemicon, Temecula, Calif.), BAM-10 (1:1,000; Sigma), 6E10 (1:1,000; Signet) or anti-Actin antibody (1:1,500; as an internal reference control; Roche). α-, β- and γ-secretase activities were quantified in cell lysates and mouse brain homogenates using available kits based on secretase-specific peptides conjugated to fluorogenic receptor molecules (R&D Systems, Minneapolis, Minn.)."}, "ADAM17": {"system": "ADAM17", "experiment": "Western blot of ADAM17 in SweAPP N2a cells", "type": "cell-based, murine", "conditions": "EGCG treatment; data not shown", "experimental": "Cultured cells were lysed in ice-cold lysis buffer described above, and an aliquot corresponding to 50 μg of total protein was electrophoretically separated using 16.5% Tris-tricine gels. Electrophoresed proteins were then transferred to PVDF membranes (Bio-Rad, Richmond, Calif.), washed in ddH2O, and blocked for 1 h at ambient temperature in Tris-buffered saline (TBS; Bio-Rad) containing 5% (w/v) non-fat dry milk. After blocking, membranes were hybridized for 1 h at ambient temperature with various primary antibodies. Membranes were then washed 3 times for 5 min each in ddH2O and incubated for 1 h at ambient temperature with the appropriate HRP-conjugated secondary antibody (1:1,000, Pierce Biotechnology, Inc. Rockford, Ill.). All antibodies were diluted in TBS containing 5% (w/v) of non-fat dry milk. Blots were developed using the luminol reagent (Pierce Biotechnology). Densitometric analysis was done using the Fluor-S MultiImager™ with Quantity One™ software (Bio-Rad). For examining sAPP-α, conditioned medium was collected following treatment according to a modified protocol from Chen and Fernandez (Chen et al., 2004). sAPP-α was extracted using 3K Nanosep centrifugal filters (Pall Life Sciences, Ann Arbor, Mich.) and protein concentrate was prepared for the aforementioned electrophoresis. […]"}, "ADAM10 [1]": {"system": "ADAM10", "experiment": "Western blot of ADAM10 maturation in parental (non-transfected) N2a cells", "type": "cell-based, murine", "conditions": "various doses, 8 h", "protocol": "Cultured cells were lysed in ice-cold lysis buffer described above, and an aliquot corresponding to 50 μg of total protein was electrophoretically separated using 16.5% Tris-tricine gels. Electrophoresed proteins were then transferred to PVDF membranes (Bio-Rad, Richmond, Calif.), washed in ddH2O, and blocked for 1 h at ambient temperature in Tris-buffered saline (TBS; Bio-Rad) containing 5% (w/v) non-fat dry milk. After blocking, membranes were hybridized for 1 h at ambient temperature with various primary antibodies. Membranes were then washed 3 times for 5 min each in ddH2O and incubated for 1 h at ambient temperature with the appropriate HRP-conjugated secondary antibody (1:1,000, Pierce Biotechnology, Inc. Rockford, Ill.). All antibodies were diluted in TBS containing 5% (w/v) of non-fat dry milk. Blots were developed using the luminol reagent (Pierce Biotechnology). Densitometric analysis was done using the Fluor-S MultiImager™ with Quantity One™ software (Bio-Rad). […] Antibodies used for Western blot included: antibody 369 (which recognizes the carboxyl-terminus of APP; 1:1,500), clone 22C11 (against the amino-terminus of APP; 1:1,500), clone 6E10 (against amino acids 1-17 of Aβ; 1:1,500), anti-ADAM9 (1:500), and antibodies against ADAM10 (1:500), ADAM17 (1:500) or actin (1:1,500; as an internal reference control)."}, "transgenic APPsw mice [2]": {"system": "transgenic APPsw mice", "experiment": "EGCG ICV injection of transgenic APPsw mice (cerebral Aβ, α-secretase activity)", "type": "in vivo", "conditions": "ICV 10 μg/mouse once; 24 hours", "protocol": "Cultured cells and mouse brain were lysed in ice-cold lysis buffer described above, and an aliquot corresponding to 50 μg of total protein was electrophoretically separated using 16.5% Tris-tricine gels. Electrophoresed proteins were then transferred to PVDF membranes (Bio-Rad), washed in dH2O, and blocked for 1 hour at ambient temperature in Tris-buffered saline (TBS; Bio-Rad) containing 5% (w/v) for non-fat dry milk. […] Densitometric analysis was done using the Fluor-S Multimager™ with Quantity One™ software (Bio-Rad). […] Antibodies used for Western blot included antibody 369 (1:1,000), anti-C-terminal APP antibody (1:500; Chemicon, Temecula, Calif.), BAM-10 (1:1,000; Sigma), 6E10 (1:1,000; Signet) or anti-Actin antibody (1:1,500; as an internal reference control; Roche). α-, β- and γ-secretase activities were quantified in cell lysates and mouse brain homogenates using available kits based on secretase-specific peptides conjugated to fluorogenic receptor molecules (R&D Systems, Minneapolis, Minn.). […]"}, "ADAM10 [3]": {"system": "ADAM10", "experiment": "Western blot of ADAM10 maturation in primary murine microglial cultures", "type": "cell-based", "conditions": "various doses, 8 h", "protocol": "Cultured cells were lysed in ice-cold lysis buffer described above, and an aliquot corresponding to 50 μg of total protein was electrophoretically separated using 16.5% Tris-tricine gels. Electrophoresed proteins were then transferred to PVDF membranes (Bio-Rad, Richmond, Calif.), washed in ddH2O, and blocked for 1 h at ambient temperature in Tris-buffered saline (TBS; Bio-Rad) containing 5% (w/v) non-fat dry milk. After blocking, membranes were hybridized for 1 h at ambient temperature with various primary antibodies. Membranes were then washed 3 times for 5 min each in ddH2O and incubated for 1 h at ambient temperature with the appropriate HRP-conjugated secondary antibody (1:1,000, Pierce Biotechnology, Inc. Rockford, Ill.). All antibodies were diluted in TBS containing 5% (w/v) of non-fat dry milk. Blots were developed using the luminol reagent (Pierce Biotechnology). Densitometric analysis was done using the Fluor-S MultiImager™ with Quantity One™ software (Bio-Rad). […] Antibodies used for Western blot included: antibody 369 (which recognizes the carboxyl-terminus of APP; 1:1,500), clone 22C11 (against the amino-terminus of APP; 1:1,500), clone 6E10 (against amino acids 1-17 of Aβ; 1:1,500), anti-ADAM9 (1:500), and antibodies against ADAM10 (1:500), ADAM17 (1:500) or actin (1:1,500; as an internal reference control). […]"}, "transgenic APPsw mice [4]": {"system": "transgenic APPsw mice", "experiment": "EGCG IP treatment of transgenic APPsw mice (brain Aβ, APP fragments, secretase activity, plaques)", "type": "in vivo, mouse", "experimental": "Soluble Aβ (FIG. 4B) and insoluble Aβ prepared with 5 M guanidine (FIG. 4C) were analyzed by ELISA. Data are represented as mean+/−SEM of Aβ (pg/mg protein). […] (FIG. 4D) α-, β- and γ-secretase cleavage activities were analyzed by secretase cleavage activity kits. Data are presented as mean+/−SEM of fluorescence units/mg protein. […] (FIG. 4E) Mouse brain paraffin sections stained with anti-human Aβ antibody (4G8); left control PBS-treated mice. […] Top, cingulated cortex (CC); Middle, hippocampus (H); Bottom, entorhinal cortex (EC). […] (FIG. 4F) illustrates bar graphs comparing the Aβ burden (%) for transgenic APPsw mice treated with two different compounds.\nCultured cells were lysed in ice-cold-lysis buffer (20 mM Tris, pH 7.5, 150 mM NaCl, 1 mM EDTA, 1 mM EGTA, 1% v/v Triton X-100, 2.5 mM sodium pyropgosphate, 1 mM β-glycerolphosphate, 1 mM Na3VO4, 1 μg/mL leupeptin, 1 mM PMSF) as previously described (Tan et al., 2002). Mouse brains were isolated under sterile conditions on ice and placed in ice-cold lysis buffer. Brains were then sonicated on ice for approximately 3 min, allowed to stand for 15 min at 4° C., and centrifuged at 15,000 rpm for 15 min. Total Aβ1-42 species were detected by acid extraction of brain homogenates in 5 M guanidine buffer (ret), followed by a 1:10 dilution in lysis buffer. Soluble Aβ1-42 was directly detected in cultured cell lysates or brain homogenates prepared with lysis buffer described above by a 1:4 or 1:10 dilution, respectively. Aβ1-42 was quantified in these samples using the Aβ1-42 ELISA kit (BioSource, Camarillo, Calif.) in accordance with the manufacturer's instructions, except that standards included a 0.5 M guanidine buffer.\nas §1"}, "[5]": {"conditions": "IP 20 mg/kg daily for 60 days, ELISA"}}}
{"compound": "O=C(O[C@@H]1Cc2c(O)cc(O)cc2O[C@@H]1c1cc(O)c(O)c(O)c1)c1cc(O)c(O)c(O)c1", "note": "[EGCG, (−)-epigallocatechin-3-gallate]", "values": [{"measurement": "secreted form of APP-α (sAPP-α) in cell cultured medium", "setting": "APP cleavage processing; 20 μM for 18 hours", "result": "markedly increased"}, {"measurement": "total APP and holo APP expression", "setting": "APP cleavage processing; EGCG treated cells", "result": "not any changes"}, {"measurement": "α-CTF generation, time course", "setting": "APP cleavage processing; in 3 to 4 hours and then through to 8 hours after EGCG treatment", "result": "drastically increased"}, {"measurement": "ADAM17 expression", "setting": "ADAM17", "result": "no significant effects"}, {"measurement": "ADAM10 maturation", "setting": "ADAM10 [1]", "result": "dose-dependently increased"}, {"measurement": "elevation of α-secretase cleavage activity in brain", "setting": "transgenic APPsw mice [2]", "result": 32, "unit": "%"}, {"measurement": "reduction of cerebral soluble Aβ levels", "setting": "transgenic APPsw mice [2]", "result": 39, "unit": "%"}, {"measurement": "α-secretase cleavage activity in brain (mean ± s.e.m.)", "setting": "transgenic APPsw mice [2]", "result": "890.29±104.41 fluorescence units/mg of total protein"}, {"measurement": "mature ADAM10", "setting": "ADAM10 [3]", "result": "dose-dependent increases"}, {"measurement": "elevation of α-secretase cleavage activity in brain", "setting": "transgenic APPsw mice [4]; IP 20 mg/kg daily for 60 days", "result": 28, "unit": "%"}, {"measurement": "sAPP-α in brain versus PBS", "setting": "transgenic APPsw mice [4]; IP 20 mg/kg daily for 60 days", "result": "markedly increased"}, {"measurement": "α-CTF in brain versus PBS", "setting": "transgenic APPsw mice [4]; IP 20 mg/kg daily for 60 days", "result": "markedly increased"}, {"measurement": "reduction of soluble Aβ1-42 level in brain", "setting": "transgenic APPsw mice [4]; [5]", "result": "~50", "unit": "%"}, {"measurement": "reduction of total Aβ1-42 level in brain", "setting": "transgenic APPsw mice [4]; [5]", "result": "~25", "unit": "%"}, {"measurement": "reduction of 4G8 immunoreactive and thioflavin S positive Aβ deposits", "setting": "transgenic APPsw mice [4]; IP, 14 months of age, across the three brain regions examined", "result": "32-36%"}, {"measurement": "decrease of insoluble 5 M guanidine-prepared Aβ levels", "setting": "transgenic APPsw mice [4]; IP, ELISA, FIG. 4C", "result": "approximately 26%"}, {"measurement": "activity of β-secretase cleavage in brain", "setting": "transgenic APPsw mice [4]; in vivo, FIG. 4d", "result": "not decreases"}]}
